Legend:
human glucagon receptor [1] = molecular target: T1, human glucagon receptor (Homo sapiens (Human), UniProt P47871); experiment: Human Glucagon SPA Assay (binding of [125I]Glucagon-Cex); details: membrane from chem-1 cells stably transfected with the human glucagon receptor, Ki by Cheng-Prusoff equation
Experimental: The Glucagon SPA assay is used to determine the ability of test compounds to block the binding of glucagon-cex to the glucagon receptor. Test compounds are re-suspended and serially diluted in 100% DMSO. 1 μl of test compound at the desired concentrations is spotted into the appropriate wells of 96 well low binding white clear bottom plate (Corning). 1 μl of DMSO is spotted into total binding wells. 1 μl of a known glucagon antagonist at a concentration of 20 μM is added to non specific binding wells. […] All assay ingredients with the exception of test compounds are re-suspended in the following buffer; 50 mM Hepes pH 7.4; 5 mM MgCl2; 1 mM CaCl; 5% glycerol and 0.2% BSA. Following a 6-10 hr incubation at room temperature the amount of hot ligand bound to the cell membranes is determined by reading the plates on a Wallac Trilux radioactive emission detector. Data is analyzed using Pfizer's Data analysis program. IC50 values are then determined from the generated sigmoidal dose response curves. Ki values are calculated using Cheng-Prusoff equation. N is the number of times the compound was assayed.

human glucagon receptor [2] = molecular target: T1, human glucagon receptor; experiment: Glucagon cAMP Assay (Cisbio cAMP detection); type: cell-based; details: CHOK1 cells stably transfected with the human glucagon receptor; block of glucagon induced cAMP production; Kb by modified Cheng-Prusoff equation

T1 sequence (P47871 26-477): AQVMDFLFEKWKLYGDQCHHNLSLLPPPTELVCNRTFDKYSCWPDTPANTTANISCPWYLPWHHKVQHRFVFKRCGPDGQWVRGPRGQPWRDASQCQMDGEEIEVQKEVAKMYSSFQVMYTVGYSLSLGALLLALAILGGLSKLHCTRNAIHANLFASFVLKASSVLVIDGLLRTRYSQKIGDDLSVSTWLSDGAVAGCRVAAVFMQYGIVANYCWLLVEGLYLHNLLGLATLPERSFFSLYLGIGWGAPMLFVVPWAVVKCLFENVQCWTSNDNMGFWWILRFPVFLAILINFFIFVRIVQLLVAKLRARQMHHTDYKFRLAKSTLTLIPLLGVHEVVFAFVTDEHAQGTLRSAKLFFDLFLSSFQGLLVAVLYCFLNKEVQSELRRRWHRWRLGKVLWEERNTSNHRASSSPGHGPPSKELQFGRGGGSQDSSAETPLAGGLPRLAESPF

Ki (human glucagon receptor [1]) [nM]	Kb (human glucagon receptor [2]) [nM]	Structure (SMILES)
225	65	O=C(O)CCNC(=O)c1ccc(C(Nc2ccc(-n3cnc(Cl)c3)nc2)C2CCCC2)cc1 (single isomer, unassigned) [Example 120, 3-(4-((6-(4-chloro-1H-imidazol-1-yl)pyridin-3-ylamino)(cyclopentyl)methyl)benzamido)propanoic acid]
354	147	CCCC(Oc1ccc(-n2cc3cccc(Cl)c3n2)cc1)c1ccc(C(=O)NCCC(=O)O)cc1 (stereo not drawn) [Example 139, (+\−)-3-(4-(1-(4-(7-chloro-2H-indazol-2-yl)phenoxy)butyl)benzamido)propanoic acid]
94.9	313	CC1(C)CC(C(Oc2cnc(-n3cc(C(F)(F)F)cn3)nc2)c2ccc(C(=O)NCCC(=O)O)cc2)C1 (single isomer, unassigned; isomer 1) [Example 155, 3-(4-((3,3-dimethylcyclobutyl)(2-(4-(trifluoromethyl)-1H-pyrazol-1-yl)pyrimidin-5-yloxy)methyl)benzamido)propanoic acid, Isomer 1]
192	52.4	CCCC(Nc1ccc(-n2cc(-c3ccccn3)cn2)nc1)c1ccc(C(=O)NCCC(=O)O)cc1 (racemic) [Example 164]
103	67	O=C(O)CCNC(=O)c1ccc(C(Oc2ccc(-n3cc4ccccc4n3)cc2)C2CCCC2)cc1 (racemic) [Example 119, (+/−)-3-(4-((4-(2H-indazol-2-yl)phenoxy)(cyclopentyl)methyl)benzamido)propanoic acid]
29.3	11.7	Cc1nn(-c2ccc(N[C@H](c3ccc(C(=O)NCCC(=O)O)cc3)C3CCCC3)cn2)cc1Cl (single isomer, unassigned; isomer 1) [Example 191, 3-(4-((6-(4-chloro-3-methyl-1H-pyrazol-1-yl)pyridin-3-ylamino)(cyclopentyl)methyl)benzamido)propanoic acid, Isomer 1]
125	423	CCCC(Oc1cc(C)c(-n2cc(C(F)(F)F)nn2)c(C)c1)c1ccc(C(=O)NCCC(=O)O)cc1 (stereo not drawn) [Example 148, (+\−)-3-(4-(1-(3,5-dimethyl-4-(4-(trifluoromethyl)-1H-1,2,3-triazol-1-yl)phenoxy)butyl)benzamido)propanoic acid]
298	764	O=C(O)CCNC(=O)c1ccc(C(Nc2ccc(-n3cnc(C(F)(F)F)c3)nc2)C(F)(F)F)cc1 (racemic) [Example 121, (+/−)-3-(4-(2,2,2-trifluoro-1-(6-(4-(trifluoromethyl)-1H-imidazol-1-yl)pyridin-3-ylamino)ethyl)benzamido)propanoic acid]
399	978	CCCC(Nc1ccc(C(=O)NCCC(=O)O)cn1)c1ccc(-n2cc(C(F)(F)F)cn2)nc1 (stereo not drawn) [Example 190, (+\−)-3-(6-(1-(6-(4-(trifluoromethyl)-1H-pyrazol-1-yl)pyridin-3-yl)butylamino)nicotinamido)propanoic acid]
28.7	10.5	CC1(C)CC([C@H](Nc2ccc(-n3cc(C4CC4)cn3)nc2)c2ccc(C(=O)NCCC(=O)O)cc2)C1 (single isomer, unassigned; isomer 2) [Example 175, N-{-4-[{[6-(4-cyclopropyl-1H-pyrazol-1-yl)pyridin-3-yl]amino}(3,3-dimethylcyclobutyl)methyl]benzoyl}-beta-alanine, Isomer 2]
88.4	106	CC(C)c1cn(-c2ccc(NC(c3ccc(C(=O)NCCC(=O)O)cc3)C3CCCC3)cn2)cn1 (stereo not drawn) [Example 123, 3-(4-(cyclopentyl(6-(4-isopropyl-1H-imidazol-1-yl)pyridin-3-ylamino)methyl)benzamido)propanoic acid]
193	1150	Cc1cc([C@H](CC(C)C)Nc2ccc(C(=O)NCCC(=O)O)cn2)cc(C)c1-n1cc(C(F)(F)F)cn1 [Example 169, (S)-3-(6-((1-(3,5-dimethyl-4-(4-(trifluoromethyl)-1H-pyrazol-1-yl)phenyl)-3-methylbutyl)amino)nicotinamido)propanoic acid]
91.9	187	O=C(O)CCNC(=O)c1ccc(C(Nc2ccc(-n3cc(C(F)(F)F)cn3)nc2)C2CCC2)cc1 (racemic) [Example 106, (+/−)-3-(4-(cyclobutyl(6-(4-(trifluoromethyl)-1H-pyrazol-1-yl)pyridin-3-ylamino)methyl)benzamido)propanoic acid]
47.3	55.8	CCCC(Nc1ccc(-n2cnc(-c3ccccc3)c2)nc1)c1ccc(C(=O)NCCC(=O)O)cc1 (racemic) [Example 162, (+/−)-3-(4-(1-(6-(4-phenyl-1H-imidazol-1-yl)pyridin-3-ylamino)butyl)benzamido)propanoic acid]
636	883	CC(C)C[C@H](Nc1ccc(C(=O)NCCC(=O)O)cn1)c1ccc(-n2cc(C(F)(F)F)cn2)nc1 (single isomer, unassigned) [Example 142, 3-(6-(3-methyl-1-(6-(4-(trifluoromethyl)-1H-pyrazol-1-yl)pyridin-3-yl)butylamino)nicotinamido)propanoic acid]
71.6	252	O=C(O)CCNC(=O)c1ccc(C(CC2CC2)Nc2ccc(-n3cc(C(F)(F)F)cn3)nc2)cc1 (racemic) [Example 107, (+/−)-3-(4-(2-cyclopropyl-1-(6-(4-(trifluoromethyl)-1H-pyrazol-1-yl)pyridin-3-ylamino)ethyl)benzamido)propanoic acid]
665	835	CCCC(Oc1ccc(-n2cc(Cl)c(C)n2)cc1)c1ccc(C(=O)NCCC(=O)O)cc1 (racemic) [Example 22, (+/−)-3-(4-(1-(4-(4-chloro-3-methyl-1H-pyrazol-1-yl)phenoxy)butyl)benzamido)propanoic acid]
20.2	27	CCC[C@@H](Nc1ccc(-n2cc(C(C)(C)C)cn2)nc1)c1ccc(C(=O)NCCC(=O)O)cc1 (single isomer, unassigned) [Example 137, 3-(4-(1-(6-(4-tert-butyl-1H-pyrazol-1-yl)pyridin-3-ylamino)butyl)benzamido)propanoic acid]
41	155	CC1(C)CC(C(Nc2cnc(-n3cc(C(F)(F)F)cn3)nc2)c2ccc(C(=O)NCCC(=O)O)cc2)C1 (single isomer, unassigned; isomer 2) [Example 158, 3-(4-((3,3-dimethylcyclobutyl)(2-(4-(trifluoromethyl)-1H-pyrazol-1-yl)pyrimidin-5-ylamino)methyl)benzamido)propanoic acid, Isomer 2]
101	79.1	CCCC(Nc1ccc(-n2cc(C3CC3)cn2)nc1)c1ccc(C(=O)NCCC(=O)O)cc1 (racemic) [Example 176, (+/−)-N-[4-(1-{[6-(4-cyclopropyl-1H-pyrazol-1-yl)pyridin-3-yl]amino}butyl)benzoyl]-beta-alanine]
26.7	343	O=C(O)CCNC(=O)c1ccc([C@@H](Nc2ccc(-n3cc(C(F)(F)F)cn3)nc2)C2CCCCC2)cc1 (single isomer, unassigned) [Example 147, 3-(4-(cyclohexyl(6-(4-(trifluoromethyl)-1H-pyrazol-1-yl)pyridine-3-ylamino)methyl)benzamido)propanoic acid]
1100	1060	O=C(O)CCNC(=O)c1ccc(C(Nc2ccc(-n3cnc(C(F)(F)F)c3)nc2)C2CCCC2)cc1 (single isomer, unassigned) [Example 98, 3-(4-(cyclopentyl(6-(4-(trifluoromethyl)-1H-imidazol-1-yl)pyridin-3-ylamino)methyl)benzamido)propanoic acid]
57.4	179	CC(C)C[C@H](Nc1ccc(C(=O)NCCC(=O)O)cn1)c1ccc(-n2cc(C(F)(F)F)cn2)nc1 (single isomer, unassigned) [Example 143, 3-(6-(3-methyl-1-(6-(4-(trifluoromethyl)-1H-pyrazol-1-yl)pyridin-3-yl)butylamino)nicotinamido)propanoic acid]
62.8	154	CCCC(Oc1ccc(-n2cc3cc(Cl)ccc3n2)cc1)c1ccc(C(=O)NCCC(=O)O)cc1 (stereo not drawn) [Example 140, (+\−)-3-(4-(1-(4-(5-chloro-2H-indazol-2-yl)phenoxy)butyl)benzamido)propanoic acid]
1330	1450	CCCCc1ccn(-c2ccc(OC(CCC)c3ccc(C(=O)NCCC(=O)O)cc3)cc2)n1 (racemic) [Example 31, (+/−)-3-(4-(1-(4-(3-butyl-1H-pyrazol-1-yl)phenoxy)butyl)benzamido)propanoic acid]
315	730	CCCC(Oc1ccc(-n2cc(C(F)(F)F)cn2)cc1C)c1ccc(C(=O)NCCC(=O)O)cc1 (stereo not drawn) [Example 159, 3-(4-(1-(2-methyl-4-(4-(trifluoromethyl)-1H-pyrazol-1-yl)phenoxy)butyl)benzamido)propanoic acid]
91.5	94.8	CCCC(Nc1ccc(-n2cc(CC)c(C)n2)nc1)c1ccc(C(=O)NCCC(=O)O)cc1 (single isomer, unassigned; isomer 1) [Example 166, 3-(4-(1-(6-(4-ethyl-3-methyl-1H-pyrazol-1-yl)pyridin-3-ylamino)butyl)benzamido)propanoic acid, Isomer 1]

— patent US8507533B2, “Glucagon receptor modulators” (Pfizer Inc., priority 2011, dated 2013)
